Reference: the METLIN SMRT retention time set (Domingo-Almenara et al. 2019)

Assay: gradient 5% acetonitrile 3 min, to 50% in 2 min, to 85% in 15 min, held 3 min, 100 µL/min
Settings: column: Zorbax Extend-C18 2.1 x 50 mm; eluents: water / acetonitrile, 0.1% formic acid
In short: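 Using water and acetonitrile that each contained 0.1% formic acid, mixtures of ~100 pure standards were separated at 100 μL/min on a Zorbax Extend-C18 column (2.1 × 50 mm, 1.8 μm). The HPLC fed a quadrupole time-of-flight mass spectrometer working in positive and negative ionization mode, with dead and dwell volumes of 40 μL and 900 μL. Data were acquired over 3 months. Retention time was read from computationally picked adduct peaks after manual inspection of each.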

CCCNC(=O)c1cnn(-c2ccc(-c3nc(C(C)C)no3)cn2)c1C
RP-LC retention time: 907 s

COc1cc2ccccc2cc1C(=O)Nc1nccs1
RP-LC retention time: 888 s

CCOc1ccccc1NC(=O)C1CCN(S(=O)(=O)c2cn(CC)cn2)CC1
RP-LC retention time: 784 s

Cc1c(C(=O)NC2CC2)cc(-c2ccccc2)n1C
RP-LC retention time: 605 s

CCc1ccccc1NC(=O)N1CCC(OC2CCN(S(C)(=O)=O)CC2)CC1
RP-LC retention time: 770 s

Cc1ccc(N(C)C(=O)n2cnc3ccccc32)cc1
RP-LC retention time: 767 s

CCCN(C)C(=O)C1CCN(c2cnn(Cc3ccccc3)c(=O)c2)CC1
RP-LC retention time: 728 s

Cc1cc(C(=O)N[C@@H]2CN(c3ncccn3)C[C@H]2CO)c(C)o1
RP-LC retention time: 616 s

Cc1ccccc1Nc1c(-c2cccc(O)c2)nc2cnccn12
RP-LC retention time: 744 s

CC(=O)c1ccc(NC(=O)CCSc2ccc(F)cc2)cc1
RP-LC retention time: 835 s

Cc1nc(-c2csc(S(=O)(=O)N3CCC(C(=O)Nc4cccc(F)c4)CC3)c2)no1
RP-LC retention time: 925 s

O=C(Nc1ccc(Br)cc1F)C1CCCN(C(=O)c2ccccc2F)C1 (configuration not stated)
RP-LC retention time: 943 s

O=C1NCCOCCN(C(=O)Nc2ccccc2)[C@@H]2CCCC[C@H]12
RP-LC retention time: 741 s

COC[C@@H]1CN(S(=O)(=O)c2ccc(F)cc2)C[C@H]1c1nc(C)no1
RP-LC retention time: 858 s

O=C(Nc1ccc(Cl)cc1)c1cccn1Cc1noc(C2CC2)n1
RP-LC retention time: 1000 s

Cc1ccc(F)c(NC(=O)c2nc(C)oc2C)c1
RP-LC retention time: 1010 s

Cc1ccc(-c2ccc(N3CCCC(C(=O)NCCc4cccs4)C3)nn2)cc1C (configuration not stated)
RP-LC retention time: 808 s

CN(C)C(=O)c1ccc2c(c1)N(CC(=O)NCc1ccc(Cl)cc1)C(=O)CO2
RP-LC retention time: 707 s

Cc1nc(N2CCCC2)c2c(C(=O)Nc3ccc(C)c(F)c3)c(C)oc2n1
RP-LC retention time: 836 s

COc1ccc(-c2cc(C(=O)N3CCC(NC(=O)C4CCCC4)CC3)[nH]n2)cc1
RP-LC retention time: 713 s

CSc1ccc(CNC(=O)c2cc3n(n2)CCCN(Cc2ccccc2)C3=O)cc1
RP-LC retention time: 895 s

CCN1CCn2c(nc3cc(C(=O)NCc4ccc5c(c4)OCO5)ccc32)C1=O
RP-LC retention time: 660 s

Cc1cccc(NC(=O)C2CCc3nc(N4CCOCC4)ncc3C2)c1C (configuration not stated)
RP-LC retention time: 698 s

COc1cc([C@H]2Oc3cc([C@H]4Oc5cc(O)cc(O)c5C(=O)[C@@H]4O)ccc3O[C@@H]2CO)ccc1O
RP-LC retention time: 685 s

CCOc1ccc(-c2cc(SCc3cccnc3)ncn2)cc1
RP-LC retention time: 690 s

CC(C)(C)c1cc(C(=O)NCc2cccnc2)nc2ccnn12
RP-LC retention time: 657 s

CCN(CCCNC(=O)C1CCN(c2ncnc3c2oc2ccccc23)CC1)c1ccccc1
RP-LC retention time: 611 s

Cc1noc(C)c1CCC(=O)N1CCC(c2nnc(-c3ccco3)s2)CC1
RP-LC retention time: 666 s

CCCNC(=O)c1nc(Nc2ccc(F)cc2)c2ccccc2n1
RP-LC retention time: 746 s

Cc1ccc(C)c2c(=O)c3c([nH]c12)CCN(CC(=O)Nc1ccc(F)cc1F)C3
RP-LC retention time: 648 s

Cc1ccc(-c2ccc(-n3nc(C)c(S(=O)(=O)N4CCCC(C)C4)c3C)nn2)cc1 (configuration not stated)
RP-LC retention time: 1230 s

Cn1nccc1-c1cccc(-c2noc(CNS(=O)(=O)c3ccc(F)cc3)n2)c1
RP-LC retention time: 868 s

Cn1cc(C(=O)Nc2ccc3c(c2)CCC3)c(S(=O)(=O)N2CCCCC2)n1
RP-LC retention time: 1090 s

COc1ccc(Cl)cc1NC(=O)Cc1nnc(-c2ccc3ncccc3c2)o1
RP-LC retention time: 797 s

O=C(NCc1csc(C2CCCN(C(=O)c3ccc(F)cc3Cl)C2)n1)C1CC1 (configuration not stated)
RP-LC retention time: 756 s

COCCCNC(=O)N1CCCC1c1nc(-c2ccccc2C)no1 (configuration not stated)
RP-LC retention time: 785 s

CS(=O)(=O)N1CCC(OC2CCN(C(=O)NCc3ccc(F)cc3)CC2)CC1
RP-LC retention time: 730 s
